Measurements taken from patent publication US4091006A, “Esters of 3-hydroxyindone compounds” (priority 1975, dated 1978).

Key:
[1] = system: adults and nymphal stages of the two-spotted mite; experiment: Mite Foliage Spray Test; assay type: in vivo, Tetranychus urticae (Koch); set-up: key: 1: no mortality; 3: an approximately 50% mortality; 5: 100% mortality; settings: 4 days
Description: (§1) The test procedures were as follows:
(§2) Compositions were rated on the basis of percent kill with a rating of 1 indicating no mortality; 3 signifying an approximately 50% mortality and 5 indicating 100% mortality at the indicated dosage.

[2] = system: egg of the two-spotted mite; experiment: Mite Ovicide Test; assay type: in vivo, Tetranychus urticae (Koch); set-up: key to Mite Ova rating: 1: no mortality; 3: an approximately 50% mortality; 5: 100% mortality; settings: for Mite Ova rating: spray on eggs, 4 days
Description: as §1
The plants were allowed to dry thoroughly.
as §2

[3] = system: Perennial rye grass, crabgrass, red root pigweed, mustard; experiment: Preliminary Herbicide Seed Germination Test; settings: each rated 1 (no injury) to 5 (no seedlings emerged)
[4] = rating/maximum 20: 100 ppm only, four species
[5] = rating/maximum 40: 100 and 1000 ppm, four species, 10-12 days

| Molecule | Mite Adult rating [1] | Mite Ova rating [2] | Herbicide (total preemergence rating) [3, 4] | Herbicide (total preemergence rating) ([3]; rating/maximum 30: 100 and 1000 ppm, crabgrass omitted) | Herbicide (total preemergence rating) [3, 5] | Mite ova kill ([2]; 500 ppm) |
| --- | --- | --- | --- | --- | --- | --- |
| Cc1cc(C)c(C2=C(OC(=O)N(C)c3ccccc3)c3ccccc3C2=O)c(C)c1 [2-(2',4',6'-Trimethylphenyl)-3-(N-methyl-N-phenylcarbamoyloxy)indone] | 1 | 3 (an approximately 50% mortality) | 10/20 | – | – | – |
| Cc1cc(C)c(C2=C(OC(=O)c3cccnc3)c3ccccc3C2=O)c(C)c1 [2-(2',4',6'-Trimethylphenyl)-3-(3-pyridinecarbonyloxy)indone] | 5 (100% mortality) | 5 (100% mortality) | 18/20 | – | – | – |
| CCCCC(CC)C(=O)OC1=C(c2ccccc2C)C(=O)c2ccccc21 (stereo not drawn) [3-(2-Ethylhexanoyloxy)-2-(2'-methylphenyl)indone] | 3 (an approximately 50% mortality) | 5 (100% mortality) | 4/20 | – | – | – |
| Cc1cc(C)c(NC(=O)OC2=C(c3c(C)cc(C)cc3C)C(=O)c3ccccc32)c(C)c1 [2-(2',4',6'-Trimethylphenyl)-3-(N-(2,4,6-Trimethylphenyl)-carbamoyloxy)indone] | 5 (100% mortality) | 5 (100% mortality) | 4/20 | – | – | – |
| Cc1cc(C)c(C2=C(OC(=O)c3ccccc3C)c3ccccc3C2=O)c(C)c1 [3-(2-Methylbenzoyloxy)-2-(2',4',6'-trimethylphenyl)indone] | 5 (100% mortality) | 5 (100% mortality) | – | 19/30 | – | – |
| CCC(CC)C(=O)OC1=C(c2ccc(C(C)C)cc2)C(=O)c2ccccc21 [3-(2-ethylbutanoyloxy)-2-(4'-isopropylphenyl)indone] | 1 | 1 | 4/20 | – | – | – |
| CC(C)(C)C(=O)OC1=C(c2ccccc2)C(=O)c2ccccc21 [2-Phenyl-3-(pivaloyloxy)indone] | 1 | 1 | – | – | 8/40 | – |
| Cc1cc(C)c(C2=C(OC(=O)Cl)c3ccccc3C2=O)c(C)c1 [2-(2',4',6'-Trimethylphenyl)-3-(chlorocarbonyloxy)indone] | 5 (100% mortality) | 5 (100% mortality) | 13/20 | – | – | – |
| CCCCCCCCCCCCCCCCCC(=O)OC1=C(c2ccc(C)cc2C)C(=O)c2ccccc21 [2-(2',4'-Dimethylphenyl)-3-(stearoyloxy)indone] | 3 (an approximately 50% mortality) | 5 (100% mortality) | 14/20 | – | – | – |
| 2-(2'-Methoxyphenyl)-3-(neodecanoyloxy)indone | 1 | 1 | 4/20 | – | – | – |
| COc1cc(C)c(C2=C(OC(=O)C(C)(C)C)c3ccccc3C2=O)c(C)c1 [2-(2',6'-Dimethyl-4'-methoxyphenyl)-3-(pivaloyloxy)indone] | 3 (an approximately 50% mortality) | 3 (an approximately 50% mortality) | – | – | 24/40 | – |
| CC(=O)OC1=C(c2ccccc2)C(=O)c2ccccc21 [2-Phenyl-3-(acetoxy)indone] | 1 | 1 | – | – | 8/40 | – |
| Cc1cccc(C)c1C(=O)OC1=C(c2c(Cl)cccc2Cl)C(=O)c2ccccc21 [3-(2,6-Dimethylbenzoyloxy)-2-(2',6'-dichlorophenyl)indone] | 1 | 1 | 4/20 | – | – | About 20% |
| Cc1cc(C)c(C2=C(OC(=O)COc3ccc(Cl)cc3Cl)c3ccccc3C2=O)c(C)c1 [2-(2',4',6'-Trimethylphenyl)-3-(2,4-dichlorophenoxyacetoxy)indone] | 5 (100% mortality) | 5 (100% mortality) | 20/20 | – | – | – |
| CC(C)c1ccccc1C1=C(OC(=O)C(C)(C)C)c2ccccc2C1=O [2-(2'-isopropylphenyl)-3-pivaloyloxyindone] | 1 | – | 4/20 | – | – | – |
